pIC50: −log10 of the molar value. Read-outs that look alike come from different tables or passages of the source.
Columns and labels:
[1] = test system: HEK293/pcDNA3.1; test: cells; conditions: Homo sapiens, HEK293, 72 h, read-out: IC50 ± SD^†; nM (resistance fold) / HEK293/pcDNA3.1
[2] = test system: ABCG2-482-G2; test: cells; conditions: 72 h, read-out: IC50 ± SD^†; nM (resistance fold) / ABCG2-482-G2
[3] = test system: ABCG2-482-T7; test: cells; conditions: 72 h, read-out: IC50 ± SD^†; nM (resistance fold) / ABCG2-482-T7
[4] = test system: ABCG2-482-R2; test: cells; conditions: 72 h, read-out: IC50 ± SD^†; nM (resistance fold) / ABCG2-482-R2
[5] = test system: KB-C2; test: cells; conditions: Homo sapiens, KB-C2, 72 h, read-out: IC50 ± SD^†; nM (resistance fold) / KB-C2
[6] = test system: KB-3-1; test: cells; conditions: Homo sapiens, KB 3-1, 72 h, read-out: IC50 ± SD^†; nM (resistance fold) / KB-3-1
[7] = test system: HEK/ABCB1; test: cells; conditions: 72 h, read-out: IC50 ± SD^†; nM (resistance fold) / HEK/ABCB1
[8] = test system: HEK293/pcDNA3.1; test: cells; conditions: Homo sapiens, HEK293, 72 h, read-out: IC50 ± SD^†; nM (resistance fold) / HEK293/pcDNA3.1; remark: listed apart in the source
[9] = biological target: ABCB1 (P-glycoprotein) (Homo sapiens, UniProt P08183); test: competition of […]-IAAP photoaffinity labeling; assay type: binding
Sequence of ABCB1 (P-glycoprotein) (P08183 whole entry): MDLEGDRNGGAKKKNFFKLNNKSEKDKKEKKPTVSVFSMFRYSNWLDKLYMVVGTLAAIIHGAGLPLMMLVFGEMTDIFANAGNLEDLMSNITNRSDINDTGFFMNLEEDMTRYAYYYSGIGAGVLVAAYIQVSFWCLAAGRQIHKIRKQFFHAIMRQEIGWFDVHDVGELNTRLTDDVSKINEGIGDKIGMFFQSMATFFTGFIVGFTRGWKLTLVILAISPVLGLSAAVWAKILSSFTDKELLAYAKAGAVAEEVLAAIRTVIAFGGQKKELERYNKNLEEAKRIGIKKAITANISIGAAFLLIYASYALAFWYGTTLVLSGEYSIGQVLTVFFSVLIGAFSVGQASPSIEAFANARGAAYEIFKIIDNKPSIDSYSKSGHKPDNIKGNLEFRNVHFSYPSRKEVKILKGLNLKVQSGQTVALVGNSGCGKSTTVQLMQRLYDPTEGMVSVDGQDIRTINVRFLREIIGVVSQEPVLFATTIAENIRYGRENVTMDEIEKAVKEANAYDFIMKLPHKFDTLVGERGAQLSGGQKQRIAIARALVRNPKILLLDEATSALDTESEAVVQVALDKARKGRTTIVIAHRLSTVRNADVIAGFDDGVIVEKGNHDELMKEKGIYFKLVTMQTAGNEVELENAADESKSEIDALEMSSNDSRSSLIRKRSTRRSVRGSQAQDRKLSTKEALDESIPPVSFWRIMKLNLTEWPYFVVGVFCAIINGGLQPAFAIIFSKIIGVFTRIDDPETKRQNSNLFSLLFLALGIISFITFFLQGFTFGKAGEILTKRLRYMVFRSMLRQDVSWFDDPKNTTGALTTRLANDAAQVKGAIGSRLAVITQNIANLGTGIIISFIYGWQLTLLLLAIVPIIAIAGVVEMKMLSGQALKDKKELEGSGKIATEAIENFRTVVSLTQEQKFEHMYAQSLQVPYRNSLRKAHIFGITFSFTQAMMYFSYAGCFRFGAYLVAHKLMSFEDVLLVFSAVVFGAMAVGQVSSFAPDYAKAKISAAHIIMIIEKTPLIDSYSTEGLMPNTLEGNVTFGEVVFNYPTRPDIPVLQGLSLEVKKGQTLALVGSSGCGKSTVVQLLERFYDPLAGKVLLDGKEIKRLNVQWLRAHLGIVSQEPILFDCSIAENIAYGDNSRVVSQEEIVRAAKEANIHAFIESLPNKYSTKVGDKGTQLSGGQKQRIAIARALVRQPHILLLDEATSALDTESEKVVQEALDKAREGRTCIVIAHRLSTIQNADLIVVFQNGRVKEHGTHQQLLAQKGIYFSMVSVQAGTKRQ

| IC50 [2] | IC50 [3] | IC50 [4] | Compound | IC50 [1] | also measured |
| --- | --- | --- | --- | --- | --- |
| 168 nM | 133 nM | 62.1 nM | COc1cccc2c1C(=O)c1c(O)c3c(c(O)c1C2=O)C[C@@](O)(C(=O)CO)C[C@@H]3O[C@H]1C[C@H](N)[C@H](O)[C@H](C)O1 [Doxorubicin] | 16.6 nM | – |
| 152 nM | 162 nM | 71.6 nM | CCc1c2c(nc3ccc(O)cc13)-c1cc3c(c(=O)n1C2)COC(=O)[C@]3(O)CC [SN-38] | 2.1 nM | – |
| – | – | – | CC[C@]1(O)C[C@@H]2CN(CCc3c([nH]c4ccccc34)[C@@](C(=O)OC)(c3cc4c(cc3OC)N(C)[C@H]3[C@@](O)(C(=O)OC)[C@H](OC(C)=O)[C@]5(CC)C=CCN6CC[C@]43[C@@H]65)C2)C1 [Vinblastine] | – | IC50 [5]: 34.4 nM; IC50 [6]: 0.2 nM |
| – | – | – | CC[C@]1(O)C[C@H]2CN(CCc3c([nH]c4ccccc34)[C@@](C(=O)OC)(c3cc4c(cc3OC)N(C=O)[C@H]3[C@@](O)(C(=O)OC)[C@H](OC(C)=O)[C@]5(CC)C=CCN6CC[C@]43[C@@H]65)C2)C1 [Vincristine] | – | IC50 [7]: 1410 nM; IC50 [8]: 4.1 nM |
| – | – | – | CC(=O)O[C@H]1C(=O)[C@@]2(C)[C@H]([C@H](OC(=O)c3ccccc3)[C@]3(O)C[C@H](OC(=O)[C@H](O)[C@@H](NC(=O)c4ccccc4)c4ccccc4)C(C)=C1C3(C)C)[C@]1(OC(C)=O)CO[C@@H]1C[C@@H]2O [paclitaxel] | – | IC50 [7]: 8480 nM; IC50 [8]: 28.3 nM; IC50 [5]: 4930 nM; IC50 [6]: 6.5 nM |
| – | – | – | COc1cc2nccc(Oc3ccc(NC(=O)Nc4cc(C)on4)c(Cl)c3)c2cc1OC [tivozanib] | – | pIC50 [9]: 5.54 |

| Compound | IC50 [2] | IC50 [3] | IC50 [4] | IC50 [1] | also measured |
| --- | --- | --- | --- | --- | --- |
| O=C1c2c(O)ccc(O)c2C(=O)c2c(NCCNCCO)ccc(NCCNCCO)c21 [mitoxantrone] | 179 nM | 190 nM | 167 nM | 35.7 nM | – |

Reference: PMC8366683 (Future oncology (London, England), 2013)
